This passage reports τoff results from article PMC11186346, “Conformational flexibility driving charge-selective substrate translocation across a bacterial transporter” (Chemical Science, 2024).

Where two headings read alike, the source gives them in different places.

The target in one assay is T1, native CymA (Klebsiella oxytoca, UniProt Q48391).
T1 construct: full-length mature pore, residues 1-324, purified as described in earlier work, reconstituted in DPhPC planar lipid bilayers; monomeric beta-barrel
T1 sequence (Q48391 23-346): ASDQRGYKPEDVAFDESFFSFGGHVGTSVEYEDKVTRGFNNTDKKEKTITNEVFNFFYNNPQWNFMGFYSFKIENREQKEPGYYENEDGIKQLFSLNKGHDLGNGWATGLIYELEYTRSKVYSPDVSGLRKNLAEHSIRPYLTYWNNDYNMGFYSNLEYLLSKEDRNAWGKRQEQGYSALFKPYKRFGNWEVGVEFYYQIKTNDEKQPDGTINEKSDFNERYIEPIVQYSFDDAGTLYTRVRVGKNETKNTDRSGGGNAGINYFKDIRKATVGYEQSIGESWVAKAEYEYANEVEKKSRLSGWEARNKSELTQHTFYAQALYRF
The assay can be described thus: single-channel electrical recording, planar lipid bilayer. The format is biochemical. To be noted: +50 mV.

In the next assay the target is truncated CymA (ΔN15) (Klebsiella oxytoca, UniProt Q48391). To be noted: +50 mV.
The mark [1] stands for this setting: pH 8.0, 1 M KCl, 10 mM HEPES, trans side, mean dwell time of blockage (koff = 1/τoff).
Where [2] appears, read: pH 6.0, mean dwell time of blockage.

As for `NC[C@H]1O[C@@H]2O[C@H]3[C@H](O)[C@@H](O)[C@@H](O[C@H]4[C@H](O)[C@@H](O)[C@@H](O[C@H]5[C@H](O)[C@@H](O)[C@@H](O[C@H]6[C@H](O)[C@@H](O)[C@@H](O[C@H]7[C@H](O)[C@@H](O)[C@@H](O[C@H]1[C@H](O)[C@H]2O)O[C@@H]7CN)O[C@@H]6CN)O[C@@H]5CN)O[C@@H]4CN)O[C@@H]3CN` [am6αCD], the τoff was found to be 0.55 ± 0.06 ms on native CymA (setting [1]) and 0.32 ± 0.04 ms on truncated CymA (ΔN15) (setting [1]).

With `OC[C@H]1O[C@@H]2O[C@H]3[C@H](O)[C@@H](O)[C@@H](O[C@H]4[C@H](O)[C@@H](O)[C@@H](O[C@H]5[C@H](O)[C@@H](O)[C@@H](O[C@H]6[C@H](O)[C@@H](O)[C@@H](O[C@H]7[C@H](O)[C@@H](O)[C@@H](O[C@H]1[C@H](O)[C@H]2O)O[C@@H]7CO)O[C@@H]6CO)O[C@@H]5CO)O[C@@H]4CO)O[C@@H]3CO` [αCD], the figures for the τoff on native CymA (setting [2]) and at truncated CymA (ΔN15) (setting [2]) were 0.620 ± 0.05 ms and 0.4500 ± 0.04 ms, respectively.
